In patent US9902736B2, “1-oxo/acylation-14-acylated oridonin derivative, preparation method therefor and application thereof” (HANGZHOU BENSHENG PHARMACEUTICAL CO., LTD., priority 2012, dated 2018):
Values after ≈ are worked out from the molar mass of the structure shown.

Columns and labels:
[1] = system: Hela; test: Solid tumor cell growth inhibition, MTT, 72 h; type: cell-based, human; conditions: Homo sapiens, HeLa; 72 h, MTT
Procedure: (§1) 6000 well-growing human solid tumor cells were obtained and inoculated into wells of a 96-well cell culture plate. The culture medium was DMEM High Glucose cell culture medium containing 10% fetal bovine serum. The plate was placed in a carbon dioxide cell incubator (5% CO2) at 37° C. and incubated for 24 hours. After added with 1-oxo/acylated-14-acylated oridonin derivatives of different concentration and mixed uniformly, the plate was placed in a carbon dioxide cell incubator (5% CO2) at 37° C. and incubated for 72 hours. Then the viable cell concentration was determined by MTT method.

[2] = system: CNE; test: Solid tumor cell growth inhibition, MTT, 72 h; type: cell-based, human; conditions: Homo sapiens, CNE; 72 h, MTT
Procedure: as §1

[3] = system: MGC-803; test: Solid tumor cell growth inhibition, MTT, 72 h; type: cell-based, human; conditions: Homo sapiens, MGC-803; 72 h, MTT
Procedure: as §1

[4] = system: Hep-2; test: Solid tumor cell growth inhibition, MTT, 72 h; type: cell-based, human; conditions: Homo sapiens, HEp-2; 72 h, MTT
Procedure: as §1

[5] = system: K562/ADR; test: Leukemia cell growth inhibition, MTT, 72 h; type: cell-based; conditions: Homo sapiens
From the text: (§2) Leukemia cell lines: leukemia cell lines: K562/adr (drug-resistant, chronic myeloid leukemia, CML), NB4 (acute promyelocytic leukemia, AML), Kasumi-1 (acute myeloid leukemia M2 type, AML-M2), Jurkat (acute lymphoblastic leukemia, ALL), all of which were donated by Cancer Research Institute of Zhejiang University, China; and H9 (acute lymphoblastic leukemia, ALL), which was purchased from China Center for Type Culture Collection.
(§3) 6000 well-growing leukemia cells were obtained and inoculated into wells of a 96-well cell culture plate. […] On the next day, the 1-oxo/acylated-14-acylated oridonin derivatives of different concentrations were added and mixed uniformly. The plate was placed in a carbon dioxide cell incubator (5% CO2) at 37° C. and was incubated for 72 hours. Then the viable cell concentration was determined by MTT method.

[6] = system: Kasumi-1; test: Leukemia cell growth inhibition, MTT, 72 h; type: cell-based; conditions: Homo sapiens
From the text: as §2, §3

[7] = system: Hep G2; test: Solid tumor cell growth inhibition, MTT, 72 h; type: cell-based; conditions: Homo sapiens, HepG2
Procedure: as §1

[8] = system: SK-OV-3; test: Solid tumor cell growth inhibition, MTT, 72 h; type: cell-based; conditions: Homo sapiens, SK-OV-3, 72 h, MTT; for IC50: read-out: IC50 SK-OV-3; for IC90: read-out: IC90 SK-OV-3
Procedure: as §1

[9] = system: PC-3; test: Solid tumor cell growth inhibition, MTT, 72 h; type: cell-based; conditions: Homo sapiens
Procedure: as §1

[10] = system: PANC-1; test: Solid tumor cell growth inhibition, MTT, 72 h; type: cell-based; conditions: Homo sapiens
Procedure: as §1

[11] = system: RKO; test: Solid tumor cell growth inhibition, MTT, 72 h; type: cell-based; conditions: Homo sapiens
Procedure: as §1

[12] = system: Becap-37; test: Solid tumor cell growth inhibition, MTT, 72 h; type: cell-based; conditions: Homo sapiens
Procedure: as §1

[13] = system: U87-MG; test: Solid tumor cell growth inhibition, MTT, 72 h; type: cell-based; conditions: Homo sapiens, U-87 MG
Procedure: as §1

[14] = system: A549; test: Solid tumor cell growth inhibition, MTT, 72 h; type: cell-based; conditions: Homo sapiens
Procedure: as §1

[15] = system: CaEs-17; test: Solid tumor cell growth inhibition, MTT, 72 h; type: cell-based; conditions: Homo sapiens, CaEs17
Procedure: as §1

[16] = system: MG-63; test: Solid tumor cell growth inhibition, MTT, 72 h; type: cell-based; conditions: Homo sapiens
Procedure: as §1

[17] = system: RPMI 8226; test: Multiple myeloma cell growth inhibition, MTT, 72 h; type: cell-based; conditions: Homo sapiens
Procedure: Multiple myeloma cell lines: RPMI8226 (multiple myeloma), purchased from Fuxiang Bio-tech Co. Ltd., Shanghai, China.
6000 well-growing cells were obtained and inoculated into wells of a 96-well cell culture plate. […] On the next day, the 1-oxo/acylated-14-acylated oridonin derivatives of different concentrations were added and mixed uniformly. The plate was placed in a carbon dioxide cell incubator (5% CO2) at 37° C. and incubated for 72 hours. Then the viable cell concentration was determined by MTT method.

[18] = system: Jurkat; test: Leukemia cell growth inhibition, MTT, 72 h; type: cell-based, human; conditions: Homo sapiens, Jurkat; 72 h, MTT
From the text: as §2, §3

[19] = system: NB4; test: Leukemia cell growth inhibition, MTT, 72 h; type: cell-based, human; conditions: Homo sapiens, NB-4; 72 h, MTT
From the text: as §2, §3

[20] = system: H9; test: Leukemia cell growth inhibition, MTT, 72 h; type: cell-based, human; conditions: Homo sapiens, H9; 72 h, MTT
From the text: as §2, §3

Structure (SMILES)	IC50 [1] [µg/mL]	IC90 [1] [µg/mL]	IC50 [2] [µg/mL]	IC90 [2] [µg/mL]	IC50 [3] [µg/mL]	IC90 [3] [µg/mL]	IC50 [4] [µg/mL]	IC90 [4] [µg/mL]	IC50 [5] [µg/mL]	IC90 [5] [µg/mL]	IC50 [6] [µg/mL]	IC90 [6] [µg/mL]	IC50 [7] [µg/mL]	IC90 [7] [µg/mL]	IC50 [8] [µg/mL]	IC90 [8] [µg/mL]	IC50 [9] [µg/mL]	IC90 [9] [µg/mL]	IC50 [10] [µg/mL]	IC90 [10] [µg/mL]	further results
C=C1C(=O)[C@]23[C@H](OC(=O)c4ccccc4Br)[C@H]1CC[C@H]2[C@@]12CO[C@@]3(O)[C@@H](O)[C@@H]1C(C)(C)CCC2=O [BS-OR-020]	1.79 (≈ 3.28 µM)	7.19 (≈ 13.2 µM)	1.8 (≈ 3.3 µM)	7.21 (≈ 13.2 µM)	1.65 (≈ 3.03 µM)	8.86 (≈ 16.2 µM)	1.92 (≈ 3.52 µM)	7.4 (≈ 13.6 µM)	0.73 (≈ 1.34 µM)	2.31 (≈ 4.24 µM)	0.76 (≈ 1.39 µM)	2.85 (≈ 5.23 µM)	1.68 (≈ 3.08 µM)	7.35 (≈ 13.5 µM)	2.56 (≈ 4.69 µM)	7.07 (≈ 13 µM)	2.56 (≈ 4.69 µM)	7.07 (≈ 13 µM)	2.32 (≈ 4.25 µM)	6.09 (≈ 11.2 µM)	IC50 [11]: 0.84 µg/mL (≈ 1.54 µM); IC90 [11]: 1.94 µg/mL (≈ 3.56 µM); IC50 [12]: 1.31 µg/mL (≈ 2.4 µM); IC90 [12]: 3.95 µg/mL (≈ 7.24 µM); IC50 [13]: 1.19 µg/mL (≈ 2.18 µM); IC90 [13]: 3.69 µg/mL (≈ 6.77 µM); IC50 [14]: 2.76 µg/mL (≈ 5.06 µM); IC90 [14]: 5.78 µg/mL (≈ 10.6 µM); IC50 [15]: 1.78 µg/mL (≈ 3.26 µM); IC90 [15]: 7.28 µg/mL (≈ 13.3 µM); IC50 [16]: 0.76 µg/mL (≈ 1.39 µM); IC90 [16]: 4.52 µg/mL (≈ 8.29 µM); IC50 [17]: 0.59 µg/mL (≈ 1.08 µM); IC90 [17]: 3.84 µg/mL (≈ 7.04 µM); IC50 [18]: 0.88 µg/mL (≈ 1.61 µM); IC90 [18]: 4.31 µg/mL (≈ 7.9 µM); IC50 [19]: 0.27 µg/mL (≈ 0.495 µM); IC90 [19]: 1.34 µg/mL (≈ 2.46 µM); IC50 [20]: 0.89 µg/mL (≈ 1.63 µM); IC90 [20]: 1.84 µg/mL (≈ 3.37 µM)
C=C1C(=O)[C@]23[C@H](OC(=O)C4CCN(S(=O)(=O)c5ccccc5[N+](=O)[O-])CC4)[C@H]1CC[C@H]2[C@@]12CO[C@@]3(O)[C@@H](O)[C@@H]1C(C)(C)CCC2=O [BS-OR-034]	2.98 (≈ 4.52 µM)	7.76 (≈ 11.8 µM)	3.73 (≈ 5.66 µM)	10.2 (≈ 15.6 µM)	2.89 (≈ 4.39 µM)	8.83 (≈ 13.4 µM)	3.97 (≈ 6.03 µM)	13.3 (≈ 20.3 µM)	1.52 (≈ 2.31 µM)	4.77 (≈ 7.24 µM)	1.58 (≈ 2.4 µM)	3.46 (≈ 5.25 µM)	3.81 (≈ 5.78 µM)	> 16	3.88 (≈ 5.89 µM)	9.45 (≈ 14.3 µM)	3.88 (≈ 5.89 µM)	9.45 (≈ 14.3 µM)	4.99 (≈ 7.58 µM)	11.9 (≈ 18.1 µM)	IC50 [11]: 1.21 µg/mL (≈ 1.84 µM); IC90 [11]: 1.97 µg/mL (≈ 2.99 µM); IC50 [12]: 3.24 µg/mL (≈ 4.92 µM); IC90 [12]: 10.1 µg/mL (≈ 15.4 µM); IC50 [13]: 2.16 µg/mL (≈ 3.28 µM); IC90 [13]: 6.75 µg/mL (≈ 10.2 µM); IC50 [14]: 6.43 µg/mL (≈ 9.76 µM); IC90 [14]: 11.9 µg/mL (≈ 18.1 µM); IC50 [15]: 3.48 µg/mL (≈ 5.28 µM); IC90 [15]: 11 µg/mL (≈ 16.7 µM); IC50 [16]: 1.28 µg/mL (≈ 1.94 µM); IC90 [16]: 3.22 µg/mL (≈ 4.89 µM); IC50 [17]: 1.48 µg/mL (≈ 2.25 µM); IC90 [17]: 3.83 µg/mL (≈ 5.81 µM); IC50 [18]: 1.32 µg/mL (≈ 2 µM); IC90 [18]: 5.36 µg/mL (≈ 8.14 µM); IC50 [19]: 0.5 µg/mL (≈ 0.759 µM); IC90 [19]: 1.94 µg/mL (≈ 2.95 µM); IC50 [20]: 0.78 µg/mL (≈ 1.18 µM); IC90 [20]: 1.73 µg/mL (≈ 2.63 µM)
